Values of other authors, collected in patent publication US20240415846A1, “METHOD OF TREATING AMYOTROPHIC LATERAL SCLEROSIS AND DOSING REGIMEN FOR SAME” (Woolsey Pharmaceuticals, Inc., priority 2021, published 2024).

Conditions: 1-hydroxy (M3) metabolite formed in vivo; Shibuya 2001; cited from earlier work

In the case of O=S(=O)(c1cccc2c(O)nccc12)N1CCCNCC1 [M3], the half-life is listed as “about 8 hours”.
